Measurements: US20240156901A1, “GAL3BP POLYPEPTIDE COMPOSITIONS AND METHODS FOR TREATMENT OF CANCER AND DETERMINING TREATMENT RESPONSIVENESS” (UNIVERSITY OF PITTSBURGH-OF THE COMMONWEALTH SYSTEM OF …, priority 2021, published 2024)

Tests used:
CHI3L1 secretion = test: ELISA of secreted CHI3L1 in conditioned medium of GBM neurosphere lines; type: cell-based, human; conditions: two GBM neurosphere lines
Protocol: Secreted CHI3L1 protein in the cell culture supernatant was measured by using the Quantikine Human CHI3L1 Immunoassay (R&D Systems, Cat #DC3L10). CHI3L1 content in the conditioned media was quantified per million cells and no CHI3L1 was detected in DMEM or NSC medium supplemented with EGF and bFGF.

Gal3-CHI3L1 interaction = Gal3-CHI3L1 interaction (Homo sapiens, UniProt P17931); conditions: TS603-V5-CHI3L1 cells; 10 μM for 24 hours
Protocol: (§1) TS603 cells overexpressing CHI3L1 with V5 tag (TS603 CHI3L1_V5_OE) or THP-1 cells treated with the peptides were collected and protein-protein interaction was crosslinked with 2 mM Dithiobis (succinimidyl propionate, DSP). Membrane proteins were extracted with the Membrane Protein Extraction Kit (ThermoFisher, Cat #89842) and ˜500 μg of protein was used for Co-IP assay by the Co-Immunoprecipitation Kit (ThermoFisher, Cat #26149). For mass spectrometry, 10 μg of each of the TS603 CHI3L1_V5_OE Co-IP samples were separated in a 12% SDS-PAGE gel and analyzed by MS at the University of Pittsburgh Biomedical MS Center.
(§2) To confirm Co-IP experiments in TS603 cells by immunoblotting, the magnetic beads of protein G (Bio-Rad, Cat #161-4023) were used following the manufacturer's protocol. […] For in vivo THP-1 cell or in vitro recombinant protein Co-IP experiments, additional following antibodies were used: Mouse anti-CHI3L1 (Santa Cruz Biotechnology, Cat #SC-393590), Rat anti-Galectin-3 (Santa Cruz Biotechnology, Cat #SC-23938), anti-Galectin-3BP (Santa Cruz Biotechnology, Cat #SC-374541), Rabbit anti-CHI3L1 (Cell Signaling Technology, Cat #47066), and Rat IgG (BioXCell, Cat #BE0090).

Gal3-Gal3BP interaction = Gal3-Gal3BP interaction (Homo sapiens, UniProt P17931); conditions: TS603-V5-CHI3L1 cells; 10 μM for 24 hours
Protocol: as §1, §2

GL261-CHI3L1 glioma = test: Flow cytometry of immune cell populations in GL261-CHI3L1 glioma after peptide treatment; type: in vivo, mouse; conditions: tumors of C57BL/6 mice bearing GL261-CHI3L1
Protocol: Mice with neurological deficits or moribund appearance were sacrificed. Tumors were separated and homogenized for 15 min at 37° C. in Collagenase IV Cocktail (3.2 mg/mL collagenase type IV, 2 mg/mL soybean trypsin inhibitor, and 1.0 mg/mL deoxyribonuclease I; Worthington Biochemical). Red blood cells were lysed using ACK lysing buffer (Gibco). Cell suspensions were filtered through 70-μm strainers, centrifuged, and resuspended in cold FACS buffer (DPBS with 1% BSA) for further analysis.
About 3×10^6 cells were used for each staining panel. Cells were incubated with 1.0 μg of TruStain fcX (BioLegend) for 10 min on ice to block Fc receptors, followed by staining with the combination of indicated antibodies. After staining, cells were washed with FACS buffer three times and incubated with Fixation Buffer (BioLegend) at RT for 20 min. Cells were washed with FACS buffer, resuspended in Cyto-Last Buffer (BioLegend), and analyzed by either a BD LSRFortessa or BD FACSAria II SORP. For CyTOF, samples were prepared as described above for flow cytometry. Three pairs of samples (scrambled shRNA vs Chi3l1 KD) with similar tumor sizes were chosen and the staining procedure was followed as previously described (Mitsialis V, et al., 2020). The samples were analyzed on a Helios2 CyTOF system (Fluidigm) at the Longwood Medical Area CyTOF Core. Additional information about flow cytometry antibodies is provided in the Supplementary Material and Methods section.

[1] = tested on: GL261-CHI3L1 orthotopic tumors; test: Peptide treatment of GL261-CHI3L1 orthotopic tumors (MRI, survival); conditions: C57BL/6 mice bearing GL261-CHI3L1 orthotopic tumors; 20 μM peptide into brain tumor via guide screw
Protocol: Male and female ICR SCID and C57BL/6 mice (4-6 weeks of age) were purchased from Taconic Biosciences and The Jackson Laboratory, respectively. The intracranial xenograft tumor models were established as previously described (Hu B et al., 2016). Cells in 5 μL DPBS were injected at the following numbers: TS543 vector control or CHI3L1 overexpression (OE), 1×10^4 cells; QPP7 scrambled control or CHI3L1 knockdown (KD), 1×10^5 cells; and GL261 vector control or CHI3L1 OE, 1×10^5 cells. […] For mice treated with peptides, 5 uL of 20 uM SCP or GMP was delivered into the mouse brain every 4 days with a total of seven times.
MRI and bioluminescent imaging of mice were performed at Rangos Research Center Animal Imaging Core. The tumor size of mice detected by MRI was analyzed with ITK-SNAP.
For intracranial xenograft tumor models treated with peptides, mice were implanted with a guide screw prior to intracranial injection. To install the screw, mice were anesthetized by intraperitoneal (IP) injection with ketamine/xylazine solution (1.75 mL of 100 mg/mL ketamine and 0.25 mL of 100 mg/mL xylazine in 8 mL sterile water) at a dosage of 100 μL/20 g body weight. The screw was covered by sealing the skin, and mice were allowed to recover for one week before intracranial implantation. GL261 cells overexpressing CHI3L1 (1×10^5) were injected in 5 μL of DPBS containing 20 μM of either scrambled control peptide (SCP) or Gal3BP mimetic peptide (GMP). SCP (20 μM) or GMP (20 μM) was subsequently given once every 3 days with a total of seven times by intracranial injection via the guide screw.
All mice received general inhalation anesthesia with Isoflurane for in vivo brain imaging. […] Depth of anesthesia was monitored by toe reflex (extension of limbs, spine positioning) and respiration rate. […] Respiration was monitored using a pneumatic sensor placed between the animal bed and the mouse's abdomen, rectal temperature was measured with a fiberoptic sensor, and core temperature was maintained at 36.8±0.2° C. with a feedback-controlled warm air source (SA Instruments). […]

[2] = tested on: microglial cell line (SIM-A9); test: Transwell migration assay, microglial cell migration; type: cell-based, mouse
Protocol: (§3) Polarized BMDMs were starved by removing FBS for 6 hours. Cells were collected and 2×10^5 cells in 200 μL of IMDM were added into each transwell insert (Millipore, Cat #MCMP24H48). 700 μL of IMDM containing 2% FBS and the indicated recombinant proteins was added to the bottom of the plates. After 14-hour incubation, transwell inserts were stained with HEMA 3 Stain Set (Fisher Scientific). Insert membranes were separated and mounted on glass slides with CYTOSEAL XYL (ThermoFisher) and images were taken by an inverted microscope (Leica DM 2500). For the SIM-A9 cells, the inserts were coated with 10 μg/mL fibronectin overnight in advance of seeding cells.

[3] = tested on: bone-marrow derived macrophages (BMDMs); test: Scratch-wound healing assay, BMDM migration; type: cell-based, mouse; conditions: rCHI3L1 0.6 μg/mL; 6 hours
Protocol: (§4) BMDMs were isolated from male and female C57BL/6 mice as previously described (Ying W et al., 2013). Briefly, femur bones were isolated from mice, and IMDM (ATCC) supplemented with 10% FBS and P/S was used to flush the bone marrow into a petri dish. After 4-6-hour incubation, the floating cells were collected and resuspended in the medium with 20 ng/mL M-CSF (PrproTech). On day 6, the fully differentiated cells were designated as an M0 state. To induce BMDM polarization toward an M1 state, 100 ng/mL LPS (Invitrogen) and 50 ng/mL IFNγ (PrproTech) were added to the M0 cells for 24 hours. To induce BMDM polarization toward an M2 state, 20 ng/mL IL-4 (PrproTech) was added to the M0 cells for 72 hours.
(§5) BMDM were polarized to the indicated status (M0, M1, or M2) and seeded in 12-well plates at 80-90% confluency. The cells were switched to the medium without FBS for 6 hours of starvation. Scratches were made using pipettor tips and fresh IMDM with indicated recombinant proteins and/or peptides were added. Images of the scratches were captured at indicated times. For the SIM-A9 scratch-wound healing assay, 12-well plates were coated with 10 μg/mL fibronectin (Sigma-Aldrich) at 37° C. overnight before seeding cells.

[4] = tested on: mouse microglial cell line (SIM-A9); test: Scratch-wound healing assay, microglial cell migration; type: cell-based; conditions: rCHI3L1 0.6 μg/mL, 6 hours
Protocol: as §5

[5] = tested on: bone-marrow derived macrophages (BMDMs); test: Transwell migration assay, BMDM migration; type: cell-based, mouse
Protocol: as §4, §3

Sequence of Gal3-CHI3L1 interaction (P17931 2-250 limits assumed): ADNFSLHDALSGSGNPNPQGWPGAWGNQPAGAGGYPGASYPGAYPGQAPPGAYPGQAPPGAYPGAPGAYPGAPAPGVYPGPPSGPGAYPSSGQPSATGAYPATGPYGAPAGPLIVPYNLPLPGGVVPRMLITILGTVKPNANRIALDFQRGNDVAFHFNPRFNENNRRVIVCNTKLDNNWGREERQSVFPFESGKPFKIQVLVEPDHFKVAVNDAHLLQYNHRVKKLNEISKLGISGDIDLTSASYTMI
Sequence of Gal3-CHI3L1 interaction (P36222 22-383 partner): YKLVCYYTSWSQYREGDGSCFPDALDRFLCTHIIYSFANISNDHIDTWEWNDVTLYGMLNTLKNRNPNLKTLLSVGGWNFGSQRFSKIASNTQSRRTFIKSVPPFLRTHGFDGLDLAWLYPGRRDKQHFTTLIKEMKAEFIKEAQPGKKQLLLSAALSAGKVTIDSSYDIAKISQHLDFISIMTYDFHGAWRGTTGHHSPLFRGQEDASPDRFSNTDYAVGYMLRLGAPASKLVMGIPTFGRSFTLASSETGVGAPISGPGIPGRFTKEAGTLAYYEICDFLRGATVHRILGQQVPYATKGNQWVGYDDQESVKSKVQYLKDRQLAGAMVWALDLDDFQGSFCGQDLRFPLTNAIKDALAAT
Sequence of Gal3-Gal3BP interaction (P17931 2-250 limits assumed): as the sequence (P17931 2-250 limits assumed) above
Sequence of Gal3-Gal3BP interaction (P36222 22-383 partner): as the sequence (P36222 22-383 partner) above

With Cn1c(=O)n(-c2ccc(C(C)(C)C#N)cc2)c2c3cc(-c4cnc5ccccc5c4)ccc3ncc21 [NVP-BEZ235] the “CHI3L1 secretion in conditioned medium” value (CHI3L1 secretion) was “decreased CHI3L1 secretion in a dose- and time-dependent manner”.
Nc1cc(C(F)(F)F)c(-c2cc(N3CCOCC3)nc(N3CCOCC3)n2)cn1 [NVP-BKM120] was tested, and the “CHI3L1 secretion in conditioned medium” value (CHI3L1 secretion) was “decreased CHI3L1 secretion in a dose- and time-dependent manner”.
OC[C@H]1O[C@@H](S[C@@H]2O[C@H](CO)[C@H](O)[C@H](n3cc(-c4cccc(F)c4)nn3)[C@H]2O)[C@H](O)[C@@H](n2cc(-c3cccc(F)c3)nn2)[C@H]1O [TD139] was tested, and the “Gal3-CHI3L1 interaction (Co-IP)” value (Gal3-CHI3L1 interaction) was “not Gal3-CHI3L1 interactions” and the “Gal3-Gal3BP interaction (Co-IP)” value (Gal3-Gal3BP interaction) was “completely disrupted”.
For “L1RTRLEETLSSDTSH15 (LRTRLEETLSSDTSH) [SCP, reference compound]”, the “CD4+ cell population” value (GL261-CHI3L1 glioma) was 39.8±4.0%, the “M2-like TAMs” value (GL261-CHI3L1 glioma; mean±SEM, P=0.0536) was 52.7±3.9% and the “M1-like TAMs” value (GL261-CHI3L1 glioma; mean±SEM, P=0.0719) was 38.2±6.7%. For the same compound, the median survival [1] was 29 days.
For rCHI3L1: recombinant CHI3L1 protein, the microglial cell migration [2] was “not in M0 BMDMs, M1 BMDMs, or microglial cells”, the “M0 and M1 BMDM migration” value [3] was “not M0 and M1 BMDMs” and the “M2 BMDM migration” value [3] was “promoted M2 BMDM migration”. The microglial cell migration [4] was “did not increase cell migration” and the “M2 BMDM migration” value [5] was “promoted cell migration in M2 BMDMs”.
